Assay results: patent US4569907A, “Thiopeptolide substrates for vertebrate collagenase” (Monsanto Company, priority 1984, dated 1986)
Non-standard residues stand in square brackets, D forms with d. Residues, ends and D or L forms follow the SMILES beside them. *: point of attachment. Dnp = O=[N+]([O-])c1ccc(*)c([N+](=O)[O-])c1

Experiments:
Assay type in all cases: biochemical
collagenase = target: T1, collagenase (Homo sapiens, UniProt P03956); test: HPLC assay of substrate hydrolysis by collagenase (comparison substrates without chromophores); conditions: Table I Comparison of Substrate; assayed by HPLC
T1 construct: endogenous in cells; host or cells: normal human skin fibroblasts (culture media)
T1 sequence (P03956 100-469): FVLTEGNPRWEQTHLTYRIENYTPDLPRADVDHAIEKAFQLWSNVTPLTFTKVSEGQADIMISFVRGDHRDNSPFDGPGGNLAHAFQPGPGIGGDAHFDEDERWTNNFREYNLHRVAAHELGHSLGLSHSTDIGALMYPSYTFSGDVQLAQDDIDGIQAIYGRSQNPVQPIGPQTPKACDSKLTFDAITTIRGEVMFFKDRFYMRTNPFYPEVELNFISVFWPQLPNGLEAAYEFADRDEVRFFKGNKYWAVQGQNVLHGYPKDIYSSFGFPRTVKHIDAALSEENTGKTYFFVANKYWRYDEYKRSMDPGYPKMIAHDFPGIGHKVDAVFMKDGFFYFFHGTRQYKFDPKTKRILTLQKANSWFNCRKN
Method: (§1) The following Table I sets forth the relative rates of hydrolysis in the above spectrophotometric assay using ther above thiopeptolides as substrates in comparison to the rates of hydrolysis assayed by High Performance Liquid Chromatography (HPLC) of two commercially available substrates for collagenase and two other substrates described in copending application Ser. No. 450,318, cited hereinbefore.

[1] = target: T2, Collagenase from culture media of normal human skin fibroblasts (Homo sapiens, UniProt P03956); test: Spectrophotometric assay for collagenase: hydrolysis of thiopeptolide substrates with 4,4'-dithiodipyridine or Ellman's reagent; conditions: for Relative Rate (of hydrolysis): Table I Comparison of Substrate, spectrophotometric assay, pH 6.5-7.0, initial rates
T2 construct: endogenous in cells; host or cells: normal human skin fibroblasts (culture media)
T2 sequence (P03956 100-469): T1 sequence (P03956 100-469)
Method: Collagenase was prepared from culture media of normal human skin fibroblasts substantially according to the procedure of Stricklin et al., Biochem. 16 1607 (1977). The enzyme (23 μg/ml in 0.5 M tris buffer [tris(hydroxymethyl) amino methane], 0.01 M CaCl2, pH 7.5) was activated by incubating 10 μl samples with one μl of trypsin (10 mg/ml in 1 mM HCl) for twenty minutes at room temperature followed by addition of 20 μl of soybean trypsin inhibitor (5 mg/ml in 0.05 M tris buffer, 0.01 M CaCl2, pH 7.5).
The activated enzyme was diluted 100 to 2000 fold for use with each of the following substrate thiopeptolides:
(§2) The spectrophotometric assay was carried out at substrate concentrations of from 0.01 mM to 5 mM in 0.05 M HEPES buffer (N-2-hydroxyethylpiperizine-N'-2-ethanesulfonic acid) with 0.01 M CaCl2 at a pH of 6.5-7.0 and containing 0.5 mM to 1.0 mM 4,4'-dithiodipyridine (or Ellman's Reagent). The total reaction volume was 250 μl including 10 to 100 μl of the diluted activated enzyme. The reaction solutions were placed in 10 mm pathlength, self-masking microcuvettes and the hydrolysis followed using a Gilford model 250 spectrophotometer at 324 λ(410 λ for Ellman's Reagent) and equipped with a Gilford model 6051 recorder. The initial rates were limited to the first 5% of reaction and were corrected for non-enzymatic hydrolysis, which never exceeded 25% of the total reaction at pH 6.5-7.0. The 4,4'dithiodipyridine (or Ellman's Reagent) at 0.5 mM was in large excess under the initial rate assay conditions and was not rate limiting.
as §1

vertebrate collagenase = target: T3, vertebrate collagenase (Homo sapiens, UniProt P03956); test: Inhibition of vertebrate collagenase (I50, median inhibitory concentration)
T3 sequence (P03956 100-469): T1 sequence (P03956 100-469)

Elastase = test: Enzyme selectivity for thiopeptolide, spectrophotometric hydrolysis; conditions: Table II Enzyme Selectivity
Method: as §2
(§3) The ability of five proteolytic enzymes other than collagenase to cleave the synthetic substrate Ac-Pro-Leu-Gly-S-Leu-Leu-Gly-OC2 H5 was tested by hydrolysis and following spectrophotometrically as in Example 14. The following Table II sets forth the relative selectivity of these enzymes in comparison to vertebrate collagenase.

α-Chymotrypsin = α-Chymotrypsin (Bos taurus, UniProt P00766); test: as above; conditions: Table II Enzyme Selectivity
Method: as §2, §3

Trypsin = target: T4, Trypsin (Bos taurus, UniProt P00760); test: as above; conditions: Table II Enzyme Selectivity
T4 sequence (P00760 24-246): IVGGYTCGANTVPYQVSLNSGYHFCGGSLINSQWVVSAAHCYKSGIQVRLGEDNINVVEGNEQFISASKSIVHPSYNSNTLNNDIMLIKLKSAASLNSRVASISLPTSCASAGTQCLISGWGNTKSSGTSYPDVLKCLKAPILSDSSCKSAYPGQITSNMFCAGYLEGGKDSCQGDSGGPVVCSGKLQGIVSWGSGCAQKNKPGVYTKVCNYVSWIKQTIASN
Method: as §2, §3

Carboxypeptidase Y = target: T5, Carboxypeptidase Y (Saccharomyces cerevisiae, UniProt P00729); test: as above; conditions: Table II Enzyme Selectivity
T5 sequence (P00729 112-532): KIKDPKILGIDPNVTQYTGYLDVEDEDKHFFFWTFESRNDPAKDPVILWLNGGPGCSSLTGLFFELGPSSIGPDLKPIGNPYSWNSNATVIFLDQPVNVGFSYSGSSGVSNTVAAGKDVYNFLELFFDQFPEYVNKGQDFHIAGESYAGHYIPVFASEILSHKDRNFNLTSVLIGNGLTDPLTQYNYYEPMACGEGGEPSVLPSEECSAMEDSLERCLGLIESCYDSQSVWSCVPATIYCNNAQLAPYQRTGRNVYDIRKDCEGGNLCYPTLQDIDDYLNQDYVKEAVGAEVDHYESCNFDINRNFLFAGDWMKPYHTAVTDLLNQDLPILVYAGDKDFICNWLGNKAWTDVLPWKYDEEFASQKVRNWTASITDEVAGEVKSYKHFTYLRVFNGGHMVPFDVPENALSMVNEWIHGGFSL
Method: as §2, §3

Kallikrein = test: as above; conditions: Table II Enzyme Selectivity
Method: as §2, §3

Molecule | Relative Rate (of hydrolysis) [1] | Relative Rate (of hydrolysis) (collagenase) | also measured
CCOC(=O)CNC(=O)[C@H](C)NC(=O)[C@H](CC(C)C)NC(=O)CNC(=O)[C@H](CC(C)C)NC(=O)[C@@H]1CCCN1C(C)=O [Ac--Pro--Leu--Gly--Leu--Ala--Gly--OC2 H5] (Ac-PLGLAG-OEt) | – | 110 | –
CCOC(=O)CNC(=O)[C@H](CC(C)C)NC(=O)[C@H](CC(C)C)NC(=O)CNC(=O)[C@H](CC(C)C)NC(=O)[C@@H]1CCCN1C(C)=O [Ac--Pro--Leu--Gly--Leu--Leu--Gly--OC2 H5] (Ac-PLGLLG-OEt) | – | 250 | –
DNP-Pro-Leu-Gly-Ile-Ala-Gly-Arg-NH2 (Dnp-PLGIAGR-NH2; SMILES CC[C@H](C)[C@H](NC(=O)CNC(=O)[C@H](CC(C)C)NC(=O)[C@@H]1CCCN1c1ccc([N+](=O)[O-])cc1[N+](=O)[O-])C(=O)N[C@@H](C)C(=O)NCC(=O)N[C@@H](CCCNC(=N)N)C(N)=O) [commercially available synthetic collagenase substrate, Peninsula Laboratories; DNP=Dinitrophenyl] | – | 25 | –
DNP-Pro-Gln-Gly-Ile-Ala-Gly-Gln-D-Arg-OH (Dnp-PQGIAGQ[dR]-OH; SMILES CC[C@H](C)[C@H](NC(=O)CNC(=O)[C@H](CCC(N)=O)NC(=O)[C@@H]1CCCN1c1ccc([N+](=O)[O-])cc1[N+](=O)[O-])C(=O)N[C@@H](C)C(=O)NCC(=O)N[C@@H](CCC(N)=O)C(=O)N[C@H](CCCNC(=N)N)C(=O)O) [commercially available synthetic collagenase substrate, Peninsula Laboratories; DNP=Dinitrophenyl] | – | 5 | –
CCOC(=O)CNC(=O)[C@H](CC(C)C)NC(=O)[C@@H](S)CC(C)C [HS-Leu-Leu-Gly-OC2 H5] | – | – | IC50 (vertebrate collagenase): 1 µM

Now from value to molecule, other results behind:

Relative Rate (of hydrolysis) [1] | Molecule | Relative Rate (of hydrolysis) (collagenase) | also measured
2800 | CCOC(=O)CNC(=O)[C@H](Cc1ccccc1)NC(=O)[C@H](CC(C)C)SC(=O)CNC(=O)[C@H](C)NC(=O)[C@@H]1CCCN1C(C)=O [Ac-Pro-Ala-Gly-S-Leu-Phe-Gly-OC2 H5] | – | –
950 | CCOC(=O)CNC(=O)[C@H](C)NC(=O)[C@H](CC(C)C)SC(=O)CNC(=O)[C@H](C)NC(=O)[C@@H]1CCCN1C(C)=O [Ac-Pro-Ala-Gly-S-Leu-Ala-Gly-OC2 H5] | – | –
5900 | CCOC(=O)CNC(=O)[C@H](Cc1ccccc1)NC(=O)[C@H](CC(C)C)SC(=O)CNC(=O)[C@H](CC(C)C)NC(=O)[C@@H]1CCCN1C(C)=O [Ac-Pro-Leu-Gly-S-Leu-Phe-Gly-OC2 H5] | – | –
8800 | CCOC(=O)CNC(=O)[C@H](CC(C)C)NC(=O)[C@H](CC(C)C)SC(=O)CNC(=O)[C@H](CC(C)C)NC(=O)[C@@H]1CCCN1C(C)=O [Ac-Pro-Leu-Gly-S-Leu-Leu-Gly-OC2 H5] | – | Relative Rate ([1]; Table II Enzyme Selectivity, Vertebrate Collagenase, same as in Example 14): 260; Relative Rate (Elastase): 12; Relative Rate (α-Chymotrypsin): 2.0; Relative Rate (Trypsin): 0.07; Relative Rate (Carboxypeptidase Y): 0.03; Relative Rate (Kallikrein): 4.3
